The record followed here is patent US10647673B2, “Acetophenone compound, preparation method thereof, and application thereof in fatty liver prevention and treatment” (Nanjing Bioenergy Medicine Science & Technology Co., Ltd., priority 2017, dated 2020).

Type in all cases: in vivo
The subject of test [1] is fatty liver of the SD rats. As to the kind of experiment: Pathological sections and grading of fatty liver of SD rats. The conditions noted are these: compounds 80 mg/kg, Sim 10 mg/kg, OCA 10 mg/kg. The method, then: 500 g of lard oil was taken, placed in a container, and heated to melt. When the temperature rose to 100° C., it was added with 200 g of cholesterol to dissolve completely, and then further added with 20 g of propylthiouracil. The resulted mixture was stirred well, and added with 500 ml of Tween 80 after dissolution, resulting in an oil phase. At the same time, 600 mL of distilled water and 400 mL of 1,2-propanediol were taken and heated to 60° C. in a water bath, then were added with 40 g of sodium deoxycholate. The resulted mixture was stirred well until realizing complete dissolution, so as to give an aqueous phase. The aqueous phase was added into the oil phase and mixed well to give a lipid emulsion. The lipid emulsion was heated in a water bath of 37° C. before intragastric administration to animals.
An appropriate amount of pharmaceutical was weighed, added with 0.5% CMC-Na, and mixed homogeneously by grinding. There are groups for Compound 01 (80 mg/kg), Compound 02 (80 mg/kg), Compound 03 (80 mg/kg), Compound 04 (80 mg/kg), Compound 05 (80 mg/kg), Compound 06 (80 mg)/kg), Compound 07 (80 mg/kg), Compound 08 (80 mg/kg), Compound 09 (80 mg/kg), Compound 10 (80 mg/kg), Compound 11 (80 mg/kg), Compound 12 (80 mg/kg), Compound 13 (80 mg/kg), Compound 14 (80 mg/kg), Compound 15 (80 mg/kg), Compound 16 (80 mg/kg), Compound 17 (80 mg/kg), Compound 18 (80 mg/kg), Compound 19 (80 mg/kg), Compound 20 (80 mg/kg), Compound 21 (80 mg/kg), and Compound 22 (80 mg/kg).
Male SD rats weighing 180-200 g were fed adaptively for 7 days. Based on body weight, 10 animals were used as control and the remaining animals were intragastrically administered with the lipid emulsion every day, 1 ml/100 g body weight for 14 days. After fasting for 12 hours, 1 mL of blood was collected from the orbits of the animals, and was determined by Hitachi Automatic Biochemical Analyzer 7080 for serum cholesterol (CHO), triglyceride (TG), low density lipoprotein (LDL-C) and high density lipoprotein (HDL-C).
The modeled rats were continued with the intragastric administration of the lipid emulsion. At the same time, the pharmaceutical-administered groups were administrated with a corresponding dose of pharmaceuticals, while the Model group was administrated with an equal volume of solvent. The pharmaceutical-administered groups were administrated with the lipid emulsion in the morning, and with the pharmaceuticals in the afternoon. The animals were measured for the body weight once a week, and were observed. After 14 days of continuous administration, 1 mL of blood was collected from the orbits, and was determined for the contents of triglyceride, cholesterol, low density lipoprotein and high density lipoprotein in blood serum.

Test [2] deals with nutritive obesity C57 mice. As to the kind of experiment: Weight loss experiment in nutritive obesity C57 mice. Set-up: key to body weight of mice: body weight in g. The conditions noted are these: for body weight of mice: high-fat diet, orlistat 40 mg/kg, Compounds 13 and 14 80 mg/kg intragastric, x ± s, n = 6; for effect on body weight compared with Orlistat (in words) / effect on body weight (in words): nutritive obesity C57 mice; for effect on body weight compared with Orlistat (in words): 80 mg/kg vs orlistat 40 mg/kg; for effect on body weight (in words): 80 mg/kg, as compared with Model group. From the text:
C57 mice, male, 18-20 g of body weight. The mice were randomly divided into Control group, Model group, Orlistat group, Compound 13 group and Compound 14 group, with 6 mice in each group.
(§1) appropriate amounts of orlistat, Compound 13 and Compound 14 were weighed respectively, added with 0.5% CMC-Na and grinded to dissolve.
The mice in Control group were fed with normal diet, and the other mice were fed with high-fat diet. All of the mice had free access to water. After one week of feeding, the pharmaceuticals were intragastrically administrated. The dose was 40 mg/kg body weight for orlistat, 80 mg/kg for Compounds 13 and 14. The body weight of the mice was weighed every week during the experiment which lasted for 28 days.

A further test has as its system ob/ob mice. As to the kind of experiment: Weight loss experiment in ob/ob mice. The conditions noted are these: for body weight of ob/ob mice: orlistat 40 mg/kg, other pharmaceuticals 80 mg/kg intragastric, x ± s, n = 6; for effect on body weight compared with Orlistat (in words) / effect on body weight (in words): ob/ob mice; for effect on body weight compared with Orlistat (in words): 80 mg/kg vs orlistat 40 mg/kg; for effect on body weight (in words): 80 mg/kg, as compared with Model group.
Description: […] ob/ob mice, male, 18-20 g of body weight, fed adaptively for one week before use. The mice were randomly divided into Control group, Model group, Orlistat group, Compound 13 group and Compound 14 group, with 6 mice in each group.
as §1
After feeding for one week, the mice were intragastrically administrated with the pharmaceuticals except the mice of Control group. The dose was 40 mg/kg body weight for orlistat, 80 mg/kg for the other pharmaceuticals. The body weight of the mice was weighed every week during the experiment which lasted for 28 days.

Setting [3] is: Experiment Day 0, in g (unit assumed).
The mark [4] stands for this setting: Experiment Day 7, in g (unit assumed).
The mark [5] stands for this setting: Experiment Day 14, in g (unit assumed).
Where [6] appears, read: Experiment Day 21, in g (unit assumed).
Where [7] appears, read: Experiment Day 28, in g (unit assumed).

The structures appear in SMILES notation. “Also recorded” adds a separate entry of the source.

As for `CC(=O)c1ccc(O)c(OC(=O)C(C)(C)CCCOc2cc(C)ccc2C)c1` [Compound 13], the “Pathological grading: Steatotic hepatocytes” value in test [1] (animal 1) was “+ (25-45% of hepatocytes undergoing steatosis)”; in test [1] (animal 2), “++ (45-65% of hepatocytes undergoing steatosis)”; in test [1] (animal 3) it was “+ (25-45% of hepatocytes undergoing steatosis)”; in test [1] (animal 4) it was “++ (45-65% of hepatocytes undergoing steatosis)”; in test [1] (animal 5) it was “++ (45-65% of hepatocytes undergoing steatosis)”. Also, the “body weight of mice” value in test [2] (setting [3]) amounted to 17.20 ± 1.92; in test [2] (setting [4]), 19.97 ± 0.57; in test [2] (setting [5]) it was 21.04 ± 0.29; in test [2] (setting [6]), 22.14 ± 0.31; in test [2] (Experiment Day 28) it was 23.25 ± 0.26. Moreover, the “effect on body weight compared with Orlistat (in words)” value (in test [2]; in the test with ob/ob mice) was “better effect than Orlistat” throughout. In addition, the entries for the “effect on body weight (in words)” value (in test [2]; in the test on ob/ob mice) were “obvious effects on weight loss; also recorded: significantly decrease the body weight of the mice from Day 14” and “obvious effects on weight loss; also recorded: significantly decrease the body weight of the ob/ob mice”, respectively. Besides, the “body weight of ob/ob mice” value was 20.74 ± 1.10 in the test with ob/ob mice (setting [3]); 21.43 ± 0.61 in the test with ob/ob mice (setting [4]); 22.10 ± 0.16 in the test on ob/ob mice (setting [5]); 24.53 ± 1.76 with ob/ob mice (setting [6]); 26.10 ± 1.95 in the test with ob/ob mice (Experiment Day 28).

Regarding `CC(=O)c1ccc(O)c(OC(=O)c2cccnc2)c1` [Compound 14], the “Pathological grading: Infiltration of inflammatory cells” value in test [1] (animal 1) amounted to 0. The “Pathological grading: Steatotic hepatocytes” value in test [1] (animal 1), in test [1] (animal 3) and in test [1] (animal 4) was “+ (25-45% of hepatocytes undergoing steatosis)” in each case. Further, the “body weight of mice” value in test [2] (setting [3]) is recorded as 17.21 ± 1.57; in test [2] (setting [4]), 19.83 ± 0.71; in test [2] (setting [5]) it was 20.87 ± 0.75; in test [2] (setting [6]) it was 21.89 ± 0.77; in test [2] (Experiment Day 28), 22.92 ± 0.88. The “effect on body weight compared with Orlistat (in words)” value (in test [2]; in the test on ob/ob mice) was “better effect than Orlistat” in each case. The entries for the “effect on body weight (in words)” value (in test [2]; with ob/ob mice) were “obvious effects on weight loss; also recorded: significantly decrease the body weight of the mice from Day 14” and “obvious effects on weight loss; also recorded: significantly decrease the body weight of the ob/ob mice”, respectively. Moreover, the “body weight of ob/ob mice” value in the test with ob/ob mice (setting [3]) is recorded as 20.79 ± 0.39; with ob/ob mice (setting [4]), 21.22 ± 0.38; in the test with ob/ob mice (setting [5]) it was 22.18 ± 0.42; in the test with ob/ob mice (setting [6]), 24.10 ± 0.45; with ob/ob mice (Experiment Day 28), 26.17 ± 0.86.

`CCCCCCCCCCC[C@@H](C[C@@H]1OC(=O)[C@H]1CCCCCC)OC(=O)[C@H](CC(C)C)NC=O` [Orlistat, reference compound]: the “body weight of mice” value in test [2] (setting [3]) worked out at 18.28 ± 0.65; in test [2] (setting [4]), 20.29 ± 0.63; in test [2] (setting [5]), 21.39 ± 0.70; in test [2] (setting [6]), 22.51 ± 0.73; in test [2] (setting [7]) it was 24.47 ± 0.79. The “body weight of ob/ob mice” value with ob/ob mice (setting [3]) came out at 20.53 ± 0.50; in the test with ob/ob mice (setting [4]) it was 22.82 ± 1.79; in the test on ob/ob mice (setting [5]), 23.98 ± 1.85; in the test on ob/ob mice (setting [6]), 26.86 ± 1.99; in the test with ob/ob mice (setting [7]) it was 31.23 ± 2.31.
